Data reported in patent US5648336A (University of Colorado, priority 1994, dated 1997).
Like-named read-outs stand apart in the source and are kept apart here. Square brackets hold non-standard residues; d marks the D form. Peptide text beside a SMILES is read from it. Oic = O=C(O)[C@@H]1C[C@@H]2CCCC[C@@H]2N1; dIgl = N[C@@H](C(=O)O)C1Cc2ccccc2C1; Igl = N[C@H](C(=O)O)C1Cc2ccccc2C1; Hyp = O=C(O)[C@@H]1C[C@@H](O)CN1; NMeF = CN[C@@H](Cc1ccccc1)C(=O)O; 2Thi = N[C@@H](Cc1cccs1)C(=O)O

Key:
[1] = target: T1, Human B2 receptors (Homo sapiens, UniProt P30411); assay: Human B2 binding, cloned receptor in CHO cell membranes, 3H-bradykinin
T1 construct: expressed in transfected cells; membranes used
T1 sequence (P30411 1-364 isoform P30411-2): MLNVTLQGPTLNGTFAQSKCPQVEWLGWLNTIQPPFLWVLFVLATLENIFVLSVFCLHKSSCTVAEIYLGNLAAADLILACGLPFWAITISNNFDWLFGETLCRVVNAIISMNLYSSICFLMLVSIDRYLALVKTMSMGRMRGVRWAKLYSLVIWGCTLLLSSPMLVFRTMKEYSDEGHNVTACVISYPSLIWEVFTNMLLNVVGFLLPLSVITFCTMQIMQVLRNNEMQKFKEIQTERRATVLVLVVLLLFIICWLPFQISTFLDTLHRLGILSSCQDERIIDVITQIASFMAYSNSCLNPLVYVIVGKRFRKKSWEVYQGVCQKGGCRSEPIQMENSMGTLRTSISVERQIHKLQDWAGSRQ
Text: Human B2 receptors were cloned and expressed in Chinese hamster ovary cells. RNA was isolated from human lung fibroblasts (CCD-16 LU obtained from the ATCC) using the method of Chirgwin et al (Biochemistry 18:5294 (1979)). The RNA was transcribed into cDNA using MMLV reverse transcriptase, the primer […] and the procedure of Maniatis (Molecular Cloning Cold Spring Harbor Laboratory (1982)). The human B2 receptor cDNA was selectively amplified using nested PCR. The first round PCR used the two primers […] and […] and Taq DNA polymerase (Promega). Twenty-five rounds of PCR were done using the following conditions: 94° C., 1 minute for denaturation, 50° C., 1 minute for annealing followed by 72° C., 3 minutes for extension. Excess primers were removed with a Centricon 30 miniconcentrator. A portion of this first round reaction was used as a template in a second round of PCR using the following primers […] and […]. The number of rounds of PCR and the conditions were the same as those used for the first round. The DNA obtained after this second round was digested with the restriction enzymes Hind III and Xba I using standard methodology. Cesium chloride-purified pRc/CMV (Invitrogen) was also digested with Hind III and Xba I using standard methodology. The products of the two digests were resolved on a 1% low melt agarose gel. The human B2 receptor DNA (approximately 1.1 kb) and the pRc/CMV DNA (approximately 5.5 kb) were excised from the gel. The gel slices containing these DNAs were heated at 65° C. and aliquots combined in a reaction containing T4 DNA ligase. The reaction was incubated overnight at 15° C.
An aliquot of this reaction was used to transform frozen competent E. coli DH5α cells (GibcoBRL). Transformants containing the human B2 receptor DNA were selected on LB+amp plates. One of the transformants was selected and the sequence of the human B2 receptor DNA insert determined using the Sequenase enzyme (United States Biochemical) according to the manufacturer's instructions. This sequence was compared to the sequence of Hess et al (Biochemical and Biophysical Research Communications 184:260 1992)). […] The human BK2 receptor-pRc/CMV plasmid was transfected into CHO-k1 cells using the Lipofectamine reagent (GibcoBRL).
Cells containing the receptor were grown to confluence and harvested by scraping into PBS and homogenized. Membranes were prepared by centrifugation in 25 mM TES pH6.8 containing 1 mM 1.10 Phenanthroline. The final pellet was resuspended in assay buffer (25 mM TES, 1 mM 1.10 Phenanthroline, 1 mM DTT, […] Captopril, 0.1% BSA pH=6.8) and frozen. […] Incubation was carried out at room temperature for 45 min. The assay was terminated by filtration through a polyethylenimine soaked G-A filter. Radioactivity was measured on a Wallac 1450 MicroBeta LSC.
The Kd for the receptor was determined by kinetic analysis of on and off rates utilizing a single exponential decay off rate. Ki 's for compounds were calculated using the following equation: Ki =IC50 /(1+[L]/Kd), where L=free ligand concentration.

[2] = tested on: isolated rat uterus
Text: (§1) A change of one unit of pA2 value represents an order of magnitude change in potency.
(§2) On isolated smooth muscles, agonist potency is given as percent of BK potency; antagonist potency is given as pA2, and is underlined. In blood pressure assays, the number is the dose of peptide in micrograms that causes 50% reduction in the effect of BK intraarterially administered as a bolus mixture in a 500 g male rat; Ag indicates unquantitated agonist activity; Ant indicates unquantitated antagonist activity.

[3] = tested on: guinea pig ileum
Text: as §1, §2

[4] = target: T2, B1 receptors (Oryctolagus cuniculus, UniProt P48748); assay: B1 receptor bioassay, rabbit aorta strips contracted with des-Arg9-BK; type: cell-based; details: 50% reduction of sustained contraction to 10^-7 M des-Arg9-BK; read-out: Rabbit Aorta p IC50 B1 receptors (converted)
T2 construct: The thorax was opened and the thoracic aorta carefully removed; from tissue; host or cells: rabbit thoracic aorta spiral strips
T2 sequence (P48748 1-352): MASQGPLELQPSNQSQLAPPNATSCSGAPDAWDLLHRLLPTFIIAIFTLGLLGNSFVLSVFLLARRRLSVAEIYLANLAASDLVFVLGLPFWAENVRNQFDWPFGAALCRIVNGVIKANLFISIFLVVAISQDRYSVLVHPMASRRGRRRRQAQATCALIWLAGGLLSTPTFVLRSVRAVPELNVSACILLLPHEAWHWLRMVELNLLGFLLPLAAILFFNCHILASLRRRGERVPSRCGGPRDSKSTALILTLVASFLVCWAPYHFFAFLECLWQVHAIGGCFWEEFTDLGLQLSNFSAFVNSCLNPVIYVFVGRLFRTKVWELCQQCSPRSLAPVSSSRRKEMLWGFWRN
Protocol: Male New Zealand white rabbits, weight range 2-3 kg, were killed by an overdose of pentobarbital i.v. The thorax was opened and the thoracic aorta carefully removed. […] The tissues were placed under 1 gm isometric tension and allowed to equilibrate for 1H. At time 1h, a concentration-effect curve was constructed to the selective B1 agonist des-Arg^9 -BK. This was repeated at time 3 hours. […] Once the contraction was sustained, the compound to be assayed was applied to the tissue bath in a cumulative manner. The concentration of the compound which produced a 50% reduction of the sustained contraction was calculated. The negative logarithm of this concentration was calculated and expressed as the […].

[5] = CHO clone S34f membranes, 0.3 nM 3H-Bradykinin, room temperature 45 min, read-out: Human Receptor Clone B2 receptor binding (Ki) (converted)

SMILES | Ki [1, 5] [nM] | Uterus Activity, antagonist potency given as pA2 [2] | Ileum Activity, antagonist potency given as pA2 [3] | IC50 [4] [nM] | Ki [1] [nM]
N=C(N)NCCC[C@H](NC(=O)[C@@H]1C[C@@H]2CCCC[C@@H]2N1C(=O)[C@H](NC(=O)[C@H](CO)NC(=O)[C@@H](NC(=O)CNC(=O)[C@@H]1C[C@@H](O)CN1C(=O)[C@@H]1CCCN1C(=O)[C@H](CCCNC(=N)N)NC(=O)[C@@H](CCCNC(=N)N)NC(=O)C12CC3CC(CC(C3)C1)C2)C1Cc2ccccc2C1)C1Cc2ccccc2C1)C(=O)O [Compound 2, Aca-DArg-Arg-Pro-Hyp-Gly-Iglb-Ser-DIg lb-Oic-Arg] | 0.0447 | 7.5 | 7.8 | 1780 | 
N=C(N)NCCC[C@H](NC(=O)[C@@H]1C[C@@H]2CCCC[C@@H]2N1C(=O)[C@H](NC(=O)[C@H](CO)NC(=O)[C@@H](NC(=O)CNC(=O)[C@@H]1C[C@@H](O)CN1C(=O)[C@@H]1CCCN1C(=O)[C@H](CCCNC(=N)N)NC(=O)[C@@H](CCCNC(=N)N)NC(=O)C1=CN2CCC1CC2)C1Cc2ccccc2C1)C1Cc2ccccc2C1)C(=O)O [Compound 3, Dhg-DArg-Arg-Pro-Hyp-Gly-Iglb-Ser-DIg lb-Oic-Arg] | 0.00141 | 7.4 | 7.6 | 1170 | 
N=C(N)NCCC[C@H](NC(=O)[C@@H]1C[C@@H]2CCCC[C@@H]2N1C(=O)[C@H](NC(=O)[C@H](CO)NC(=O)[C@H](Cc1cccs1)NC(=O)CNC(=O)[C@@H]1C[C@@H](O)CN1C(=O)[C@@H]1CCCN1C(=O)[C@@H](N)CCCNC(=N)N)C1Cc2ccccc2C1)C(=O)O [Compound 5, Arg-Pro-Hyp-Gly-Thi-Ser-DIglb-Oic-Arg] (H-RP[Hyp]G[2Thi]S[dIgl][Oic]R-OH) | 0.0692 |  | 7.7 | 1550 | 
N=C(N)NCCC[C@@H](N)C(=O)N[C@@H](CCCNC(=N)N)C(=O)N1CCC[C@H]1C(=O)N1C[C@H](O)C[C@H]1C(=O)NCC(=O)N[C@@H](Cc1cccs1)C(=O)N[C@@H](CO)C(=O)N(CC(=O)N1[C@H](C(=O)N[C@@H](CCCNC(=N)N)C(=O)O)C[C@@H]2CCCC[C@@H]21)C1Cc2ccccc2C1 [Compound 16, DArg-Arg-Pro-Hyp-Gly-Thi-Ser-Nigb-Oic-Arg] | 0.309 | 6.8 | 7.0 |  | 
N=C(N)NCCC[C@@H](N)C(=O)N[C@@H](CCCNC(=N)N)C(=O)N1CCC[C@H]1C(=O)N1C[C@H](O)C[C@H]1C(=O)NCC(=O)N[C@@H](Cc1cccs1)C(=O)N[C@@H](CO)C(=O)N[C@@H](C(=O)N1Cc2ccccc2C[C@H]1C(=O)N[C@@H](CCCNC(=N)N)C(=O)O)C1Cc2ccccc2C1 [Compound 22, DArg-Arg-Pro-Hyp-Gly-Thi-Ser-DIglb-Tic-Arg] | 0.0126 | 7.0 | 6.8 | 1780 | 
N=C(N)NCCC[C@@H](N)C(=O)N[C@@H](CCCNC(=N)N)C(=O)N1CCC[C@H]1C(=O)N1C[C@H](O)C[C@H]1C(=O)NCC(=O)N[C@@H](Cc1cccs1)C(=O)N[C@@H](CO)C(=O)N1Cc2ccccc2C[C@@H]1C(=O)N(CC(=O)N[C@@H](CCCNC(=N)N)C(=O)O)C1Cc2ccccc2C1 [Compound 23, DArg-Arg-Pro-Hyp-Gly-Thi-Ser-DTic-Nigb-Arg] | 0.0158 | 8.3 | 7.2 | > 10000 | 
Cc1ccc(C[C@@H](NC(=O)CNC(=O)[C@@H]2C[C@@H](O)CN2C(=O)[C@@H]2CCCN2C(=O)[C@H](CCCNC(=N)N)NC(=O)[C@H](N)CCCNC(=N)N)C(=O)N[C@@H](CO)C(=O)N[C@@H](C(=O)N2[C@H](C(=O)N[C@@H](CCCNC(=N)N)C(=O)O)C[C@@H]3CCCC[C@@H]32)C2Cc3ccccc3C2)c(C)c1 [Compound 27, DArg-Arg-Pro-Hyp-Gly-DDMF-Ser-DIglb-Oic-Arg] | 0.178 | 8.0 | 6.9 | > 10000 | 
N=C(N)NCCC[C@@H](N)C(=O)N[C@@H](CCCNC(=N)N)C(=O)N1CCC[C@H]1C(=O)N1C[C@H](O)C[C@H]1C(=O)NCC(=O)N[C@H](Cc1cccs1)C(=O)N[C@@H](CO)C(=O)N[C@@H](C(=O)N1[C@H](C(=O)N[C@@H](CCCNC(=N)N)C(=O)O)C[C@@H]2CCCC[C@@H]21)C1Cc2ccccc2C1 [Compound 31, DArg-Arg-Pro-Hyp-Gly-DThi-Ser-DIglb-Oic-Arg] |  |  |  | > 10000 | 0.01
CN(C(=O)[C@H](CCCNC(=N)N)NC(=O)[C@H](N)CCCNC(=N)N)[C@@H](Cc1ccccc1)C(=O)N1C[C@H](O)C[C@H]1C(=O)NCC(=O)N[C@H](C(=O)N[C@@H](CO)C(=O)N[C@@H](C(=O)N1[C@H](C(=O)N[C@@H](CCCNC(=N)N)C(=O)O)C[C@@H]2CCCC[C@@H]21)C1Cc2ccccc2C1)C1Cc2ccccc2C1 [Compound 45, DArg-Arg-NMF-Hyp-Gly-Iglb-Ser-DIglb-Oic-Arg] (H-[dR]R[NMeF][Hyp]G[Igl]S[dIgl][Oic]R-OH) | 0.141 |  |  | 2880 | 
N=C(N)NCCC[C@H](NC(=O)[C@@H]1C[C@@H]2CCCC[C@@H]2N1C(=O)[C@H](NC(=O)[C@H](CO)NC(=O)[C@H](Cc1cccs1)NC(=O)CNC(=O)[C@@H]1C[C@@H](O)CN1C(=O)[C@@H]1CCCN1C(=O)[C@H](CCCNC(=N)N)NC(=O)[C@@H](CCCNC(=N)N)NC(=O)C12CC3CC(CC(C3)C1)C2)C1Cc2ccccc2C1)C(=O)O [Compound 55, Aca-DArg-Arg-Pro-Hyp-Gly-Thi-Ser-DIglb-Oic-Arg] |  | 9.2 | 8.4 | 269 | 
N=C(N)NCCC[C@H](NC(=O)[C@@H]1C[C@@H]2CCCC[C@@H]2N1C(=O)[C@H](NC(=O)[C@H](COS(=O)(=O)O)NC(=O)[C@H](Cc1cccs1)NC(=O)CNC(=O)[C@@H]1C[C@@H](O)CN1C(=O)[C@@H]1CCCN1C(=O)[C@H](CCCNC(=N)N)NC(=O)[C@@H](CCCNC(=N)N)NC(=O)C12CC3CC(CC(C3)C1)C2)C1Cc2ccccc2C1)C(=O)O [Compound 61, Aca-DArg-Arg-Pro-Hyp-Gly-Thi-Ser(SO)-DIglb-Oic-Arg] | 4.07 |  | 7.5 | 4170 | 
